Where “and” joins values, the source holds several entries; their conditions need not be identical. Equal values may be shown once. Numbers after ± are expanded uncertainties.
Settings: Liquid, Ebulliometric method (Recirculating still)

In the case of CC(C)O [propan-2-ol], the “vapor or sublimation pressure” value (355.7 K) is reported as 101.3 ± 1.4 kPa and 101.32 ± 10 kPa.

For O [water], the “vapor or sublimation pressure” value (373.1 K) was 101.3 ± 1.4 kPa.

— the NIST ThermoML archive (doi:10.1021/acs.jced.8b00610)
